Reference: article PMC3961306, “Comparison of the Cancer Gene Targeting and Biochemical Selectivities of All Targeted Kinase Inhibitors Approved for Clinical Use” (PLoS ONE, 2014)

Key:
Assay in all cases: Kinase profiling in a biochemical assay panel (mobility shift assays and ELISA), %-inhibition at 1 μM; selectivity entropy
[1] = biological target: panel of more than 300 wild-type and mutant kinases (313 kinase panel) (Homo sapiens, UniProt P22455, N535K); details: kinase FGFR4(N535K); compound at 1 μM
Sequence of panel of more than 300 wild-type and mutant kinases (313 kinase panel) (Homo sapiens, UniProt P22455, N535K) (P22455 22-802 N535K): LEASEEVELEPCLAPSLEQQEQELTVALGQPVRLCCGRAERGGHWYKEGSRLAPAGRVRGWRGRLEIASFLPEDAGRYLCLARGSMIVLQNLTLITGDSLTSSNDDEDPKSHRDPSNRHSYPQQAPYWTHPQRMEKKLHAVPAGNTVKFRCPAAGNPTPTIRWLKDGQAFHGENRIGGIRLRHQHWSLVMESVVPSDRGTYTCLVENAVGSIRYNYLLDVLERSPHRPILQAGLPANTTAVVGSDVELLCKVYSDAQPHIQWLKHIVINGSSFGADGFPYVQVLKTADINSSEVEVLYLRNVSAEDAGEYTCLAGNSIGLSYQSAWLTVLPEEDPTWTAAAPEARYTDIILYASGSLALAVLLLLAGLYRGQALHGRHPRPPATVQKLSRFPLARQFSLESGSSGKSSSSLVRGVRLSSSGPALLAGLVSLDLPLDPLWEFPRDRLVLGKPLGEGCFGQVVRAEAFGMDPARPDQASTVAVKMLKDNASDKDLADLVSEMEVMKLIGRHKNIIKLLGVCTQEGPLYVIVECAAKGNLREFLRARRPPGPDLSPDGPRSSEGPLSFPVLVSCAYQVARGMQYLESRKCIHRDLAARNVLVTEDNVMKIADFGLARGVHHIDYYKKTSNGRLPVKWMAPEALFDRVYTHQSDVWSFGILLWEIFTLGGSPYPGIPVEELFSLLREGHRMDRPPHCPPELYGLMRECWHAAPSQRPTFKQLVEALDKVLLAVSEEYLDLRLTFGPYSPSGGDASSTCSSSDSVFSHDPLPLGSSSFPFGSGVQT

[2] = biological target: panel of more than 300 wild-type and mutant kinases (313 kinase panel) (Homo sapiens, UniProt P42684); details: kinase ARG; 1 μM compound
[3] = biological target: panel of more than 300 wild-type and mutant kinases (313 kinase panel) (Homo sapiens, UniProt P49674); details: kinase CK1ε; 1 μM compound
[4] = biological target: panel of more than 300 wild-type and mutant kinases (313 kinase panel) (Homo sapiens, UniProt Q5VT25); details: kinase MRCKα; 1 μM
[5] = biological target: T1, panel of more than 300 wild-type and mutant kinases (313 kinase panel) (Homo sapiens, UniProt Q99759); details: kinase MAP3K3; compound at 1 μM
T1 sequence (Q99759 1-626): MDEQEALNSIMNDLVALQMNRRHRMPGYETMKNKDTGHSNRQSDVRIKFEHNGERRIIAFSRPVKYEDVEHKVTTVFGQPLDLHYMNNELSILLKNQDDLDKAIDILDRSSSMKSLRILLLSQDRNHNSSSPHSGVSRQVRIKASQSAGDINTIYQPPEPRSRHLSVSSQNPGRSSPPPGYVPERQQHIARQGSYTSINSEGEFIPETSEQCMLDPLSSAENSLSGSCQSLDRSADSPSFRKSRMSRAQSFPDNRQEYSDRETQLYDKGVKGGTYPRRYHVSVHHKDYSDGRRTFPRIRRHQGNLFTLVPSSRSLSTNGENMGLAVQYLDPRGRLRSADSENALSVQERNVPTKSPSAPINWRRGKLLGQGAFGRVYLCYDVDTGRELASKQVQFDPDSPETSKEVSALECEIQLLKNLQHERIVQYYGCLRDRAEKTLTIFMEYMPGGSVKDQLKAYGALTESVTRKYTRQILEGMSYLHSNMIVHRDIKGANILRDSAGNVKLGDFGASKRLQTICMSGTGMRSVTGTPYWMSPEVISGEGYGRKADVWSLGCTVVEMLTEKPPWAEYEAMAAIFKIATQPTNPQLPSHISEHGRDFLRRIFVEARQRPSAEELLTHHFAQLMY

[6] = biological target: T2, panel of more than 300 wild-type and mutant kinases (313 kinase panel) (Homo sapiens, UniProt Q9BXA7); details: kinase TSSK1; 1 μM
T2 sequence (Q9BXA7 1-367): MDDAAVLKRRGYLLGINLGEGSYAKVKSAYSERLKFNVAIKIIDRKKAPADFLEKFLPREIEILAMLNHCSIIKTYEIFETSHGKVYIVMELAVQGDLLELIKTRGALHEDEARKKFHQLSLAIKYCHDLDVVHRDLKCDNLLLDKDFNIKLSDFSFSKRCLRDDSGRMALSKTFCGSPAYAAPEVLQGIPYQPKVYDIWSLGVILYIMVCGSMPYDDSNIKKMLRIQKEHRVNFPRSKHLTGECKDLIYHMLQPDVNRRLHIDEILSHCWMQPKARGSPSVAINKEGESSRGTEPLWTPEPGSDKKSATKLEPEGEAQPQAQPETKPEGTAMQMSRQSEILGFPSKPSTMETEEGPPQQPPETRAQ

[7] = biological target: T3, panel of more than 300 wild-type and mutant kinases (313 kinase panel) (Homo sapiens, UniProt Q9NRA0); details: kinase SPHK2; 1 μM
T3 sequence (Q9NRA0 1-654): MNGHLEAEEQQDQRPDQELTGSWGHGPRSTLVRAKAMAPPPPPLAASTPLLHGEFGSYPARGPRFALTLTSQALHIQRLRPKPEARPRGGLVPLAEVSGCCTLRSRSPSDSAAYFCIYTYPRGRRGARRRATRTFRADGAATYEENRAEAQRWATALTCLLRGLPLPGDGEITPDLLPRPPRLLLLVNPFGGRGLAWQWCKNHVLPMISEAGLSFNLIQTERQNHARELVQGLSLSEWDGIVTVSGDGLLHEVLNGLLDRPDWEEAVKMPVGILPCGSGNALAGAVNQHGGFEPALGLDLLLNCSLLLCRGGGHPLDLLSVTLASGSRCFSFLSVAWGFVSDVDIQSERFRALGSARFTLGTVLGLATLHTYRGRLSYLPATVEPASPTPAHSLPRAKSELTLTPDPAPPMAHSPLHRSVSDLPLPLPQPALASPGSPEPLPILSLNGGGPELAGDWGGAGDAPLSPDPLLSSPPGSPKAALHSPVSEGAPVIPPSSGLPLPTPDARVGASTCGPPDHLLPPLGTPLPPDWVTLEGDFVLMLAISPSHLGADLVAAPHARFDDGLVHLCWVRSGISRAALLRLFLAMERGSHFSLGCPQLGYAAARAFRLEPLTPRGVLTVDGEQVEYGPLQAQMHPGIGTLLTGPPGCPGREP

[8] = biological target: panel of more than 300 wild-type and mutant kinases (313 kinase panel) (Homo sapiens, UniProt Q9Y3S1); details: kinase WNK2; compound at 1 μM

Row | SMILES | %-inhibition of FGFR4(N535K) [1] [%] | %-inhibition, ARG [2] [%] | %-inhibition, CK1ε [3] [%] | %-inhibition of MRCKα [4] [%] | %-inhibition of MAP3K3 [5] [%] | %-inhibition of TSSK1 [6] [%] | %-inhibition of SPHK2 [7] [%] | %-inhibition of WNK2 [8] [%]
1 | CO[C@H]1C[C@@H]2CC[C@@H](C)[C@@](O)(O2)C(=O)C(=O)N2CCCC[C@H]2C(=O)O[C@H]([C@H](C)C[C@@H]2CC[C@@H](OC(=O)C(C)(CO)CO)[C@H](OC)C2)CC(=O)[C@H](C)/C=C(\C)[C@@H](O)[C@@H](OC)C(=O)[C@H](C)C[C@H](C)/C=C/C=C/C=C/1C [temsirolimus] | 9 | -1.55 | -7 | -1.53 | 10 | -7 | 2.77 | -7
2 | COc1cc2nccc(Oc3ccc(NC(=O)C4(C(=O)Nc5ccc(F)cc5)CC4)cc3)c2cc1OC [cabozantinib] | 39 | 29 | 3.28 | 0.575 | 9 | -1.49 | 2 | 6.43
3 | N#CC[C@H](C1CCCC1)n1cc(-c2ncnc3[nH]ccc23)cn1 [ruxolitinib] | 4.48 | 6 | 7.39 | 0.766 | 36 | 39 | 6 | -4.57
